Usually IC50 stands for the midpoint of a concentration-inhibition curve.

Here are results for one molecule from PMC12400753 (Respiratory Research, 2025).

For one assay, the target named is LPAR1 (Homo sapiens, UniProt Q92633). As to the kind of experiment: LPA-induced calcium mobilization in transiently transfected HEK293T cells. The settings on record: 3 h preincubation; LPA at EC80 5 µM. Further details: host or cells: HEK293T. It counts as cell-based. As to the method:
(§1) We had previously assessed selectivity against LPAR2 and 3 [11]. […] Human LPAR1-6 plasmids were each transiently transfected into HEK293T cells and the EC80 (effective concentration producing 80% maximal effect) for LPA activation empirically determined. Selectivity was then tested in a concentration response paradigm using a 3 h preincubation followed by LPA-induced calcium mobilization.
(§2) Plasmids containing human LPAR1-6 were obtained from Origene (Rockville, MD) and maxiprepped at Eton Biosciences (San Diego, CA). Transfection mix was prepared by adding Fugene 6 transfection mix to serum free media and 0.1 µg plasmid. After a 20 m incubation, HEK293T cells (ATCC, Manassas VA) were lifted with Accutase and added to the Fugene mix at a final concentration of 0.5 × 10^4 cells/well. Cells were then plated on black clear bottom 96-well plates and incubated overnight in a 37 °C, 5% CO2 incubator. […] During the last hour of incubation, media was removed and replaced with Fluo-4 NW calcium assay dye prepared as per manufacturer’s recommendations in assay buffer. Agonist plates containing LPA were prepared for individual receptor subytpes using their respective EC80. Calcium mobilization was measured as per manufacturer’s directions on a Flexstation 3 (Molecular Devices, San Jose, CA).
On the technique in general: Calcium flux is commonly read through the fluorescence of an indicator in the cells.

Assay [1] deals with bleomycin-induced macrophage activation. As to the kind of experiment: Intratracheal bleomycin, therapeutic dosing: BAL macrophage size and IL-1β. It counts as in vivo, mouse. The note with it: 3 mg/kg oral once a day from day 3 after bleomycin. As to the method: To further support our ex vivo macrophage findings, we used a therapeutic paradigm where mice were challenged in vivo with intratracheal instillation of bleomycin. […] The fluid was centrifuged and supernatant and cell fractions analyzed.
Mice were dosed until day 14 at which point BAL fluid was collected. BAL was centrifuged and cells were transferred to culture plates and incubated overnight at 37 °C. Plates were spun down and supernatant and cell pellet analysed separately. Supernatant was analyzed for IL-1β as described for mouse above. The cell pellet for each condition was plated at 3 × 10^3 cells/well in black clear bottom 96-well plates. After settling, cells were fixed in formalin and immunostained against CD68 and detected with a donkey anti-rat Alexa 488 conjugated antibody. Image acquisition and analysis was performed using a Nikon A1R confocal microscope and NIS Elements software.

For a further assay, the target named is T1, human LPAR3 (Homo sapiens, UniProt Q9UBY5).
T1 construct: host or cells: HEK293T
T1 sequence (Q9UBY5 1-353): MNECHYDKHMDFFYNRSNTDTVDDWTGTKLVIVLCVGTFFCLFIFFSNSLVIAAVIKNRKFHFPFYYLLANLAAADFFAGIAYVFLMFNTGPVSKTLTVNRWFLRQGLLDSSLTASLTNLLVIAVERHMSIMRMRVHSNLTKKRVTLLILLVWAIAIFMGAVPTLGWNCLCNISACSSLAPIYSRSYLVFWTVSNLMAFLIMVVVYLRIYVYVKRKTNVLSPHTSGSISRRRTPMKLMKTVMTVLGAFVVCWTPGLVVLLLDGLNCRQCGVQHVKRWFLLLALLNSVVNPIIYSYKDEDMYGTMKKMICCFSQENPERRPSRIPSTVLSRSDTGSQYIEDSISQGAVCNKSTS
The experiment in a line: LPA-induced calcium mobilization in transiently transfected HEK293T cells. The format is cell-based. The note with it: 3 h preincubation; LPA at EC80 10 µM. As to the method:
as §1, §2

The next assay has as its target T2, human LPAR4 (Homo sapiens, UniProt Q99677).
T2 construct: host or cells: HEK293T
Described as above. The format is cell-based. The note with it: 3 h preincubation; LPA at EC80 10 µM. The procedure:
as §1, §2

The next assay deals with T3, human LPAR5 (Homo sapiens, UniProt Q9H1C0).
T3 construct: host or cells: HEK293T
T3 sequence (Q9H1C0 whole entry): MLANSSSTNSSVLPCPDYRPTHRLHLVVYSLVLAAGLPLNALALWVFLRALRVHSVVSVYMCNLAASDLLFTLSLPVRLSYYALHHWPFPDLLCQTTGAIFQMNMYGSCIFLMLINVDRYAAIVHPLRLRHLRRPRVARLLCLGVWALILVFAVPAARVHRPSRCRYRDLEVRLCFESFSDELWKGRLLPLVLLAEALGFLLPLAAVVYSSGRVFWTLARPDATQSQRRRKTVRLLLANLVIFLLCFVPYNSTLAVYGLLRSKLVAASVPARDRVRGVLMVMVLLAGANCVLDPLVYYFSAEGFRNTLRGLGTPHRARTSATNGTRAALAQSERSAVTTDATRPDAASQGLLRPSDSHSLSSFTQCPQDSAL
The assay is described as above. The format is cell-based. The settings on record: 3 h preincubation; LPA at EC80 1 µM. As to the method: as §1, §2

Assay [2] has as its system bleomycin-induced lung fibrosis. The experiment in a line: Systemic (subcutaneous) bleomycin mouse model. The format is in vivo. The settings on record: 3 mg/kg oral once a day, therapeutic. The procedure: Mice were injected subcutaneously with bleomycin (0.1 units/day), on a schedule of 5 days on/2 days off to induce fibrosis. […] Dosing was maintained until study end, at which point lung tissues were collected. The right lobe was snap frozen and processed for collagen analysis for hydroxyproline; the left lobe was sectioned and stained with Masson’s trichrome stain for histological assessment of tissue collagen. This study was conducted by Inotiv (West Lafayette, IN). Forty-four female 9 week old C57Bl/6 mice (Jackson Labs) were provided standard chow (Envigo, Cat #: 8940), housed under standard conditions, and allowed to acclimate for > 3 days prior to enrollment. Prior to start, mice were weighed and placed into balanced enrollment groups. Four days prior to start, mice were anesthetized, dorsal fur shaved and removed with depilatory agent, and two circles (~ 1.5 cm diameter) heat-branded on their dorsal abdomen. Fur was removed as needed for the balance of the study to ensure consistent location of s.c. injections. Beginning on day 0 and through day 26, mice were anesthetized with isoflurane and administered 0.9% NaCl or bleomycin injections (100 µl/injection, s.c.) into each of the circles (2 injections/mouse/d) on a 5 day on/2 day off paradigm. Mice were administered 0.9% NaCl (vehicle) or bleomycin (0.1 U) with bleomycin doses split evenly between the two circles (i.e., 0.05 U/circle). […] Weight measures and health observations were made daily. On day 27, mice were dosed to enable trough blood/plasma collection on day 28, which was collected via retro-orbital approach under isoflurane anesthesia. Following blood collection, mice were administered vehicle or compound on a timetable as appropriate to enable a peak blood collection 2 h postdose. At the time of sacrifice, mice were anesthetized with pentobarbital, a tracheotomy performed and interfaced with a positive pressure ventilator providing 100% O2. The mouse’s chest was then opened, and a needle interfaced with an infusion pump introduced to the right ventricle. […] The lungs were then harvested, immediately immersed in ice-cold 0.9% NaCl, gross dissected and subjected to morphological analyses. Tissue samples will be processed for biochemical and/or histological analyses as described below. Masson’s Trichrome Blue stained slides were subjected to histological analyses using color segmentation analysis for lung fibrosis. Frozen lung samples underwent hydroxyproline analysis as described below. Lung tissue processing – following exsanguination and flushing of the pulmonary circulation to clear blood, the lungs were removed, placed in ice-cold 0.9% NaCl and processed on wet ice. Extraneous tissue was removed and whole lung weight recorded. […]

Chain of LPAR1 (Q92633 whole entry): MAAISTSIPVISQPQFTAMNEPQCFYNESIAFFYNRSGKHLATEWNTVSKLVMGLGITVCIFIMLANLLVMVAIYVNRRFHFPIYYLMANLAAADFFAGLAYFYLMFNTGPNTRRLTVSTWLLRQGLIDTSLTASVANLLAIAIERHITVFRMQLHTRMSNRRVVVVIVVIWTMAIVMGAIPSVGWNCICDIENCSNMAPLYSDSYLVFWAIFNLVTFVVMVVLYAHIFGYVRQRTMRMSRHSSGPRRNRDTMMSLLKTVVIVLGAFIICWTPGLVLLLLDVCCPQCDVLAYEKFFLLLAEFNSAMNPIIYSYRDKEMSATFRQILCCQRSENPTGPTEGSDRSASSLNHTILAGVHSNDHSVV
T2 sequence (Q99677 whole entry): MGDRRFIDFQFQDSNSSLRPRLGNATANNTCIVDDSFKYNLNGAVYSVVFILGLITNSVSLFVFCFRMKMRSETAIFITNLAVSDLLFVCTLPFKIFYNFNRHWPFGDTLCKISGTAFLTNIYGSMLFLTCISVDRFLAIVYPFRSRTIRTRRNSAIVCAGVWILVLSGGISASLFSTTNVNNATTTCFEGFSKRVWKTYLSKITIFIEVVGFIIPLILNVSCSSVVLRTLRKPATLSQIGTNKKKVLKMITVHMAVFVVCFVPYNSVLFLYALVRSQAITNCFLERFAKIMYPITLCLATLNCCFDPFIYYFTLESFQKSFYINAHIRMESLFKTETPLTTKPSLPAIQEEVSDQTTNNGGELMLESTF

Turning to `COc1ccc(NC(=O)N(c2ccccc2C(C)C)C2CCC(C(=O)O)CC2)c(OC(F)F)n1` (centres unmarked) [PIPE-791], the half-maximal inhibitory concentration (IC50) at LPAR1 is 8 nM; on human LPAR3, 398 nM; on human LPAR4, 607 nM; at human LPAR5 it was 114 nM. Moreover, the “reduction of IL-1β in BAL supernatant” value in assay [1] was 69.2%. Moreover, the “reduction of macrophage cell size (CD68 area)” value in assay [1] (BAL cells) worked out at 56%. Besides, in assay [2], the “reduction in lung hydroxyproline compared to bleomycin/vehicle” value amounted to 40%. In addition, the “tissue collagen fraction (TCF), trichrome” value in assay [2] (p = 0.0017) is listed as “nearly full reduction”.
